ChEMBL document CHEMBL5465560, “Selectivity Literature for EUbOPEN Chemogenomic Library” (2024)

Assays:
hERG (KCNH2) = hERG (KCNH2) (Homo sapiens, UniProt Q12809); experiment: Selectivity interaction (Eurofins CEREP Diversity Profile (receptors and ion channels)) EUB0000279b KCNH2; details: at 10 µM, read-out: % of control
[1] = target: Mast/stem cell growth factor receptor Kit (Homo sapiens, UniProt P10721); details: at 10 µM
[2] = target: T1, Dual specificity protein kinase TTK (Homo sapiens) (UniProt P33981); experiment: Selectivity interaction (KinomeScan (DiscoverX)) EUB0000092b TTK; details: at 10 µM
T1 sequence (whole entry): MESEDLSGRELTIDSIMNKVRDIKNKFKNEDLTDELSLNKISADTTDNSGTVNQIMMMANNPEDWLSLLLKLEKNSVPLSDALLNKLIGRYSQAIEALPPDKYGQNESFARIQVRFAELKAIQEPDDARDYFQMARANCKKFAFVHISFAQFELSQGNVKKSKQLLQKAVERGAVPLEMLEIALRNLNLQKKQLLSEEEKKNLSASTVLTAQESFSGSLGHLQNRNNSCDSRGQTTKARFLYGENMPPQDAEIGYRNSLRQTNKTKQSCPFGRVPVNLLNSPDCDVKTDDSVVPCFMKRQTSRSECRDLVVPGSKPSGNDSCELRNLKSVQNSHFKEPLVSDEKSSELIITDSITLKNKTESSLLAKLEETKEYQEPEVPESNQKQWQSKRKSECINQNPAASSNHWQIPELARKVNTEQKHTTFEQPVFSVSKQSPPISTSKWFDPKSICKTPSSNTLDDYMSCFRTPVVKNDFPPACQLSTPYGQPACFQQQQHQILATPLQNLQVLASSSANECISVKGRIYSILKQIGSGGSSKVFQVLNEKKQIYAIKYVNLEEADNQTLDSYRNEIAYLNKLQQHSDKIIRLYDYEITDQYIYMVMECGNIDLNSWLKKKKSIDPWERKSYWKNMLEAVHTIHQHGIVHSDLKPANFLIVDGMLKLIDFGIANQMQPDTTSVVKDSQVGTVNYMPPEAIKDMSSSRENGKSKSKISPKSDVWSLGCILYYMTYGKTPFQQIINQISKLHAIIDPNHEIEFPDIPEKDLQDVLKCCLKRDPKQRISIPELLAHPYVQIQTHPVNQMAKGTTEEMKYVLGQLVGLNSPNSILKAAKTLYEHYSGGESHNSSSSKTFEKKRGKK

[3] = target: T2, Megakaryocyte-associated tyrosine-protein kinase (Homo sapiens) (UniProt P42679); experiment: Selectivity interaction (KinomeScan (DiscoverX)) EUB0000045b MATK
T2 sequence (whole entry): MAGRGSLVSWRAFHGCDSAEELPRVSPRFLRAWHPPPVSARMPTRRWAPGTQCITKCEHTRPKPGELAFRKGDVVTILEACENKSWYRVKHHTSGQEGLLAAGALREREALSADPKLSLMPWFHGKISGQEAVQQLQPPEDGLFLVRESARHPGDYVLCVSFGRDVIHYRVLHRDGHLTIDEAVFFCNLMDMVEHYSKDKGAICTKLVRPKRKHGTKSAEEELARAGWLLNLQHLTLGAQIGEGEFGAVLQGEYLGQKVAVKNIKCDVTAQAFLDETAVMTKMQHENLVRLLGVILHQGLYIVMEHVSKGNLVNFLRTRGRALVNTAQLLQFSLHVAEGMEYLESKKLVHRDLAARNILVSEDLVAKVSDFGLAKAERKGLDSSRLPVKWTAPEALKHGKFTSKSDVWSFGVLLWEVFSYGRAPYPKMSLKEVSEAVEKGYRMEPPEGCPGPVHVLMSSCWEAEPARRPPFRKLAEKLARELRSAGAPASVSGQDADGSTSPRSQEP

[4] = target: Dual specificity protein kinase CLK3 (Homo sapiens, UniProt P49761); experiment: Selectivity interaction (KinomeScan (DiscoverX)) EUB0000618a CLK3; details: at 10 µM
[5] = target: Vascular endothelial growth factor receptor 2 (Homo sapiens, UniProt P35968); experiment: Selectivity interaction (Upstate Kinase Profiler service (Millipore)) EUB0000056c KDR; details: at 1 µM
[6] = target: Mitogen-activated protein kinase kinase kinase kinase 1 (Homo sapiens) (UniProt Q92918); experiment: Selectivity interaction (KinomeScan (DiscoverX)) EUB0000695a MAP4K1; details: at 100 nM
[7] = target: T3, Phosphatidylinositol 5-phosphate 4-kinase type-2 gamma (Homo sapiens) (UniProt Q8TBX8); experiment: Selectivity interaction (KinomeScan (DiscoverX)) EUB0000607a PIP4K2C; details: at 10 µM
T3 sequence (whole entry): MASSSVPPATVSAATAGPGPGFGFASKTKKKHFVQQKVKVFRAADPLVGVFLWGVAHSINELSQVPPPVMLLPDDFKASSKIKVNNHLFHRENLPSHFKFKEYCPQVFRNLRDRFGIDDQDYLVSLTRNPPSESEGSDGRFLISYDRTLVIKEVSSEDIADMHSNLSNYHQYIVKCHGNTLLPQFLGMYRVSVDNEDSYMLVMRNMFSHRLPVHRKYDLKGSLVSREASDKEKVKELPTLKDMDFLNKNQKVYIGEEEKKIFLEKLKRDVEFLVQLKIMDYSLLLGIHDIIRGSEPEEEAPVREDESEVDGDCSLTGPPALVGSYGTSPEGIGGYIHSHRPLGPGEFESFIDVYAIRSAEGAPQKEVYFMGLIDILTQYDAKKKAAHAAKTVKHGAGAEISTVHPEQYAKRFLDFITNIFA

[8] = target: High affinity nerve growth factor receptor (Homo sapiens, UniProt P04629); experiment: Selectivity interaction (KinomeScan (DiscoverX)) EUB0000607a NTRK1; details: at 10 µM
[9] = target: Voltage-gated inwardly rectifying potassium channel KCNH2 (Homo sapiens, UniProt Q12809); experiment: Selectivity interaction (Panel of non-epigenetic targets (kinases, GPCRs, ion channels, and transporters, Eurofins) ) EUB0000271b KCNH2; details: at 1 µM
Voltage-gated inwardly rectifying potassium channel KCNH2, sequence (Q12809 whole entry): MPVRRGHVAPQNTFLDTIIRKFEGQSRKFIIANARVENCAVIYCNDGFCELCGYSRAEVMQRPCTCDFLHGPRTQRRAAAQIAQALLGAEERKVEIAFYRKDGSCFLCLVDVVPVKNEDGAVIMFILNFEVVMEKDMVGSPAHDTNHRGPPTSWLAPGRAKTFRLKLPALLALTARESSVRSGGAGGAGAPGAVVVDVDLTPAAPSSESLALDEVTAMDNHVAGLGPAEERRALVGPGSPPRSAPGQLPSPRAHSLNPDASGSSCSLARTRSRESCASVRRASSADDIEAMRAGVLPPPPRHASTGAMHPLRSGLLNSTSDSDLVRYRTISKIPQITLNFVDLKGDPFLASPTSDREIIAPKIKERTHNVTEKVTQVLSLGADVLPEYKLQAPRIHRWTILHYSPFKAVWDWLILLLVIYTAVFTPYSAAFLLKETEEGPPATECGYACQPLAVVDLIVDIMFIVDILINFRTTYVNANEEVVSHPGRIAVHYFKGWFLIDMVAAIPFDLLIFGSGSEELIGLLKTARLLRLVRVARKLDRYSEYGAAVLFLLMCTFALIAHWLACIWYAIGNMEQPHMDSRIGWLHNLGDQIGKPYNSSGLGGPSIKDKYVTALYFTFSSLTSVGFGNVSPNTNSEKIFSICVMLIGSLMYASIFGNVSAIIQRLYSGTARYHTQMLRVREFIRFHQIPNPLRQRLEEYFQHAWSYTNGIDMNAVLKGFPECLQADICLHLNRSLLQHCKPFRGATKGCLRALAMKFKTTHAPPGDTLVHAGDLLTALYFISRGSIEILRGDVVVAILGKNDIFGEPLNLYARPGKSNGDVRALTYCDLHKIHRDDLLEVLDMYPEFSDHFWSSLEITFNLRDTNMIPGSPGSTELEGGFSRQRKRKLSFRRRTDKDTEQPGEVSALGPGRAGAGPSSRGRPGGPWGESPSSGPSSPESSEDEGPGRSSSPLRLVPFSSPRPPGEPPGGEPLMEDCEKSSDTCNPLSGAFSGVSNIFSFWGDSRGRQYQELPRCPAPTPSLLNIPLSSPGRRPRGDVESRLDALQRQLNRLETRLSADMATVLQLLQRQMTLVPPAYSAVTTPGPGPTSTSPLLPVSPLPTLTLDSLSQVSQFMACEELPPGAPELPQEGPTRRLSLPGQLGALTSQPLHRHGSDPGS

Mitogen-activated protein kinase kinase kinase kinase 1 (Homo sapiens), sequence (Q92918 whole entry, looked up): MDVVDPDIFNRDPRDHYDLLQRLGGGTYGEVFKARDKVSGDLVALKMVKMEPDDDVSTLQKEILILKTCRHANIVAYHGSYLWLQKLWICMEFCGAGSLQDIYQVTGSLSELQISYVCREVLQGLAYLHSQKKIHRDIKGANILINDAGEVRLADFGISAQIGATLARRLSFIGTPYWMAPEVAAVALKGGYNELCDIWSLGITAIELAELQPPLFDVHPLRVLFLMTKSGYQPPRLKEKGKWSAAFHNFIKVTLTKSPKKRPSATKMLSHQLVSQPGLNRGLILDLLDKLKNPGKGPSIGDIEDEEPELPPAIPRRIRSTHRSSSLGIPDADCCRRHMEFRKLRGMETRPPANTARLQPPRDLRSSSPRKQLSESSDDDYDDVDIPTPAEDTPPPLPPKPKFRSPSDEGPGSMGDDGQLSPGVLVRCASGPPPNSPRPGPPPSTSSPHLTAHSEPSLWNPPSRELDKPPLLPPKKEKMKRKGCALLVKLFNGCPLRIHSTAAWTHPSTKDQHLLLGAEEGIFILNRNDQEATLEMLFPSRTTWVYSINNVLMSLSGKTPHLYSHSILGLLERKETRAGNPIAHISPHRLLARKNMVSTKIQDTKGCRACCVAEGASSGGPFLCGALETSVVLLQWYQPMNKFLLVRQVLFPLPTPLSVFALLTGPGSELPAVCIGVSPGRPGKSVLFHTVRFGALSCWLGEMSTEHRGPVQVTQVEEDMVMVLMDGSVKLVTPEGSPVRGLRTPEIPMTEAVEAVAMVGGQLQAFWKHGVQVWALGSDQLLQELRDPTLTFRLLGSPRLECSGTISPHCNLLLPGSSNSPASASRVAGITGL
hERG (KCNH2), sequence (Q12809 whole entry): as the sequence (Q12809 whole entry) above
Mast/stem cell growth factor receptor Kit, sequence (P10721 whole entry): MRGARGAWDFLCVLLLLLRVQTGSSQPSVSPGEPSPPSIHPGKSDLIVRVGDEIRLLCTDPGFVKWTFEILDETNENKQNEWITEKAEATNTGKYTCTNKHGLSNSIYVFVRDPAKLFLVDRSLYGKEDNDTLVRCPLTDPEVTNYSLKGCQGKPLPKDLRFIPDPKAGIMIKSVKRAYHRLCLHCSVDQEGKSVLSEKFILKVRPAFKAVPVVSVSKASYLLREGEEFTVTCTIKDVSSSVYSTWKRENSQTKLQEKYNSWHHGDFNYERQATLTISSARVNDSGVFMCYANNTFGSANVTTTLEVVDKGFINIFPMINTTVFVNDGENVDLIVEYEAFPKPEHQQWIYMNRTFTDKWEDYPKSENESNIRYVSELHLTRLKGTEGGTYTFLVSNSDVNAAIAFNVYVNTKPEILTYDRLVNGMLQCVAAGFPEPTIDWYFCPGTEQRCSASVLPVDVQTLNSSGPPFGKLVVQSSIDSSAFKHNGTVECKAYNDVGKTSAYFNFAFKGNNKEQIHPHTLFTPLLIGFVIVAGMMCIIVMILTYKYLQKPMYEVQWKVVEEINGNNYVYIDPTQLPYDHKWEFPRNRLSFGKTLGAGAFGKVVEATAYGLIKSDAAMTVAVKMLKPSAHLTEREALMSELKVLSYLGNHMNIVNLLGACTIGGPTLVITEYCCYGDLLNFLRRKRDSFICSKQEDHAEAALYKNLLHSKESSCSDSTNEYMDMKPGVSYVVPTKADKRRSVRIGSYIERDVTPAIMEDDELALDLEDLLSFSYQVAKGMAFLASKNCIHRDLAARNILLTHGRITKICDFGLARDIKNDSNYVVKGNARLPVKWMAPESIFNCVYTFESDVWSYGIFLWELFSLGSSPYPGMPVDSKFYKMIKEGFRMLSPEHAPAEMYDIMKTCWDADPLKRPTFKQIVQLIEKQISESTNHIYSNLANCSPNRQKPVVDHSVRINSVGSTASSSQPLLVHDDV
High affinity nerve growth factor receptor, sequence (P04629 33-796 limits assumed): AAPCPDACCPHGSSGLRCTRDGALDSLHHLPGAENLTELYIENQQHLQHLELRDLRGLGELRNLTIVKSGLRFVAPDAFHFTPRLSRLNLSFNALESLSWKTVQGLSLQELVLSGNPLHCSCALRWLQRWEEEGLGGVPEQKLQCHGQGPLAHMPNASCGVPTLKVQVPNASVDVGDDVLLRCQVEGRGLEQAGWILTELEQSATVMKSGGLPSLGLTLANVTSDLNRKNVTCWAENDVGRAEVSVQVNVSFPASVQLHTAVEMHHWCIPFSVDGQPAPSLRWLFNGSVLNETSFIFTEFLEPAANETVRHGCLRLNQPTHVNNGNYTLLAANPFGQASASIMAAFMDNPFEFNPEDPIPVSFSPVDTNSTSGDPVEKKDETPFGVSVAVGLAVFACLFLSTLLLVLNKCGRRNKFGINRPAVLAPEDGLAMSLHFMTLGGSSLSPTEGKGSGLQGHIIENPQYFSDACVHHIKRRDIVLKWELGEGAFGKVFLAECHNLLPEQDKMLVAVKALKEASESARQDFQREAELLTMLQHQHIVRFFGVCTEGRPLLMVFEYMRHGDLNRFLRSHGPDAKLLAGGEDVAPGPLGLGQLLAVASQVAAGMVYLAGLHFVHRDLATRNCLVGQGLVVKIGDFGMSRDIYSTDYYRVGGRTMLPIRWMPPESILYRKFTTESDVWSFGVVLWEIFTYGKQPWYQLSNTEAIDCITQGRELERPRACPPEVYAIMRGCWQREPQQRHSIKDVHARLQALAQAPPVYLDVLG

CC(=O)c1cc(-c2ccccc2OCC2CC2)c2ncccn12
activity (hERG (KCNH2)): 111%

CCN(CC)CCCCNc1ncc2cc(-c3cc(OC)cc(OC)c3)c(NC(=O)NC(C)(C)C)nc2n1
% of control [1]: 100%

CCC(=O)N1CCN(c2ccc(-n3c(=O)ccc4cnc5ccc(-c6cnc7ccccc7c6)cc5c43)cc2C(F)(F)F)CC1
% of control [2]: 9.6%

C=CC(=O)Nc1cc(-n2c(=O)ccc3cnc4ccc(-c5ccc(NS(C)(=O)=O)cc5)cc4c32)ccc1C
% of control ([3]; at 1 µM): 92%
% of control ([3]; at 10 µM): 95%

O[C@H]1CC[C@H](Nc2ncc3nc(Nc4c(F)cc(F)cc4F)n([C@H]4CCOC4)c3n2)CC1
% of control [4]: 93%

Cc1ccc(-c2ccc3c(ccc4sc5c(c43)NC[C@@H](C)NC5=O)n2)cn1
% of inhibition [5]: 32%

Cc1cc(F)c(C(=O)Nc2cccc(-c3nncn3C(C)C)n2)cc1-n1cnc(C2CC2)c1
% of control [6]: 97%

CNC(=O)Nc1ccc(-c2nc(N3CC4CCC(C3)O4)c3cnn(C4CCC5(CC4)OCCO5)c3n2)cc1
% of control [7]: 100%
% of control [8]: 100%

Cc1cc(C)cc([C@@H]2c3cc(C)ccc3NC(=O)CN2C(=O)c2ccc(Br)s2)c1
% of inhibition [9]: 0%
